Like-named read-outs stand apart in the source and are kept apart here.
Key:
Experiment in all cases: Further analysis of a plurality of inhibitors and a plurality of kinases on microarray (Example IX, Table 5);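 note: inhibition of each kinase by the inhibitors is given as a qualitative level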;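 for Inhibition level, DYRK2: level 0 none or unclear Level 1 marginal Level 2 substantial inhibition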;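 for Inhibition level, LOC57118: level 0 none or unclear then 1 little or marginal then 2 substantial inhibition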;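 for Inhibition level, MAP2K4: level 0 none or unclear Level 1 marginal Level 2 substantial inhibition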;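 for Inhibition level, MAP3K4: level 0 no or unclear inhibition to Level 2 substantial inhibition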;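 for Inhibition level, PIM1: level 0 no or unclear inhibition to Level 2 substantial inhibition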;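 for Inhibition level, STK13: level 0 no or unclear inhibition to Level 2 substantial inhibition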
Type in all cases: biochemical
[1] = target: plurality of kinases (Table 5) (Homo sapiens, UniProt Q8IU85); settings: plate D2; inhibitor 100 uM
plurality of kinases (Table 5) (Homo sapiens, UniProt Q8IU85), sequence (Q8IU85 whole entry): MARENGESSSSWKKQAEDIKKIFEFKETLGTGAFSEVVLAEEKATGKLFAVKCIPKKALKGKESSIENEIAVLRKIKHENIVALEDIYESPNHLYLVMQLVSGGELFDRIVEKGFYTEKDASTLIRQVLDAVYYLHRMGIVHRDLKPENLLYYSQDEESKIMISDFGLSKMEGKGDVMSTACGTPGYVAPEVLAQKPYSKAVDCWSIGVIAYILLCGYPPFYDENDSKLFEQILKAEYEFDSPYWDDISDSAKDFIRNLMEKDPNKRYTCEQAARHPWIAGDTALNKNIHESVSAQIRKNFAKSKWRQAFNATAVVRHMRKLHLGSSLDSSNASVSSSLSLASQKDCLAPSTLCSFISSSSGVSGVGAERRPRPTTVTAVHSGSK

[2] = target: plurality of kinases (Table 5) (Homo sapiens, UniProt P24723); settings: plate B3
plurality of kinases (Table 5) (Homo sapiens, UniProt P24723), sequence (P24723 whole entry): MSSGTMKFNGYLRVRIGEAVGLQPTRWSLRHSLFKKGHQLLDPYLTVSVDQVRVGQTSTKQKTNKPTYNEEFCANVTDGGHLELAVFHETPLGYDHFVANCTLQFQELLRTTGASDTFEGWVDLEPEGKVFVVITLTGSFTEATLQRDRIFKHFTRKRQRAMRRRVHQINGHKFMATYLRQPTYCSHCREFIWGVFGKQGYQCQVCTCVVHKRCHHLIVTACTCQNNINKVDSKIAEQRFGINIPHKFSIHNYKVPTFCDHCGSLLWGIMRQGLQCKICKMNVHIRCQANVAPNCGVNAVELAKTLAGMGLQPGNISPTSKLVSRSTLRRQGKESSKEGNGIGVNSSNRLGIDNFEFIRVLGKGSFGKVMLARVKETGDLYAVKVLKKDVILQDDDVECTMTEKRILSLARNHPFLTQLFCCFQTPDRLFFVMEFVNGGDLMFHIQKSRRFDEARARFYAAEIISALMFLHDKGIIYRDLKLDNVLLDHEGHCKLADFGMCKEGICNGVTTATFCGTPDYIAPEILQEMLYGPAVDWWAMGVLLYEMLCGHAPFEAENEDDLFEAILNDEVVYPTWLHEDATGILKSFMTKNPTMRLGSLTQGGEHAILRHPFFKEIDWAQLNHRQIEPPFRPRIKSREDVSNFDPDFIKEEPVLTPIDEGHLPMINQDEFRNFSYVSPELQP

[3] = target: T1, plurality of kinases (Table 5) (Homo sapiens, UniProt P45985)
T1 sequence (P45985 1-399): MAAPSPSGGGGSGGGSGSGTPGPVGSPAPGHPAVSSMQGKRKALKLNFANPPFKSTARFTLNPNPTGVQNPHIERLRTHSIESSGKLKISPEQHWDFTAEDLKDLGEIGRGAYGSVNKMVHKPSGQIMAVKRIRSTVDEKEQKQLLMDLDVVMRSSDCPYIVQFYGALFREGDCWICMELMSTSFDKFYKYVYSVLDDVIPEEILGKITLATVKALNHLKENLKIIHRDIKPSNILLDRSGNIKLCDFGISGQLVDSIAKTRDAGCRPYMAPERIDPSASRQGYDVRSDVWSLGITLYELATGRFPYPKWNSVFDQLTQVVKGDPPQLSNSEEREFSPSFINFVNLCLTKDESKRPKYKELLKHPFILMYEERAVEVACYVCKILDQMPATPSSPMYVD

[4] = target: T2, plurality of kinases (Table 5) (Homo sapiens, UniProt Q96KB5); settings: plate G7
T2 sequence (Q96KB5 1-322): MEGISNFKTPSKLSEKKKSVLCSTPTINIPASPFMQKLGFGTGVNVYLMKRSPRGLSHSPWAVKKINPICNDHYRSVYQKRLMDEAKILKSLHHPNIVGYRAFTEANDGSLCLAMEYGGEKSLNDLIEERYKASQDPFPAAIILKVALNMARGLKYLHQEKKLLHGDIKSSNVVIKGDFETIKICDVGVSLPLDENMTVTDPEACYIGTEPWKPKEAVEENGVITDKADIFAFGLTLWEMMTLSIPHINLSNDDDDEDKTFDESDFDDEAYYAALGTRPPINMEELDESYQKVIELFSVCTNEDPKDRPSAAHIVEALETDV

[5] = target: T3, plurality of kinases (Table 5) (Homo sapiens, UniProt Q92630); settings: plate D11
T3 sequence (Q92630 1-601): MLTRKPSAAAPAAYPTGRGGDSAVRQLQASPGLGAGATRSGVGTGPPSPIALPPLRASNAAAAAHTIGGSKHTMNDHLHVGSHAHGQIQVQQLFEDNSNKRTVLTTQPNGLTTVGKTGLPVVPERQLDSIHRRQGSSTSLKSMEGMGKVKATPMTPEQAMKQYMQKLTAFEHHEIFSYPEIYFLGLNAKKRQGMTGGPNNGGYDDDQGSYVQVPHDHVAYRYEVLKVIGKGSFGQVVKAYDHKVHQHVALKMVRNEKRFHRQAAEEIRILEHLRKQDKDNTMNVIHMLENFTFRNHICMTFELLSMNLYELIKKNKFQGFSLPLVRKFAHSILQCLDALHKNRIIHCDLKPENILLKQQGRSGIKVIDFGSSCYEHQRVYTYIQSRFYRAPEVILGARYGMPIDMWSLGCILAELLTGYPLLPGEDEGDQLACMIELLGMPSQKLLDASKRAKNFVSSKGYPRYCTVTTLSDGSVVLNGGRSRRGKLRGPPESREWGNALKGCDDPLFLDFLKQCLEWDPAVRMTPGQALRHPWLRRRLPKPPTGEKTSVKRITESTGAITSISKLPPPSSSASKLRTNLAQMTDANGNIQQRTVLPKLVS

[6] = target: T4, plurality of kinases (Table 5) (Homo sapiens, UniProt Q9UQB9); settings: plate G11; inhibitor 100 uM
T4 sequence (Q9UQB9 1-309): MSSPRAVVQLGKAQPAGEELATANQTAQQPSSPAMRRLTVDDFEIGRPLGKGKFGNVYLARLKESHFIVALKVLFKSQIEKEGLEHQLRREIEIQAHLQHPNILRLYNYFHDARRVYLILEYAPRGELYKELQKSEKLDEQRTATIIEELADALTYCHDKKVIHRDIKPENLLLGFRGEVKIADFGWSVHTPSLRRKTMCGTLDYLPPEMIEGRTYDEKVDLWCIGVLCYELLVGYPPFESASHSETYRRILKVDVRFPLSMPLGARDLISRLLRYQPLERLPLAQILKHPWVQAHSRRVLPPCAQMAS

[7] = target: plurality of kinases (Table 5) (Homo sapiens, UniProt O75914); settings: plate D4
plurality of kinases (Table 5) (Homo sapiens, UniProt O75914), sequence (O75914 whole entry): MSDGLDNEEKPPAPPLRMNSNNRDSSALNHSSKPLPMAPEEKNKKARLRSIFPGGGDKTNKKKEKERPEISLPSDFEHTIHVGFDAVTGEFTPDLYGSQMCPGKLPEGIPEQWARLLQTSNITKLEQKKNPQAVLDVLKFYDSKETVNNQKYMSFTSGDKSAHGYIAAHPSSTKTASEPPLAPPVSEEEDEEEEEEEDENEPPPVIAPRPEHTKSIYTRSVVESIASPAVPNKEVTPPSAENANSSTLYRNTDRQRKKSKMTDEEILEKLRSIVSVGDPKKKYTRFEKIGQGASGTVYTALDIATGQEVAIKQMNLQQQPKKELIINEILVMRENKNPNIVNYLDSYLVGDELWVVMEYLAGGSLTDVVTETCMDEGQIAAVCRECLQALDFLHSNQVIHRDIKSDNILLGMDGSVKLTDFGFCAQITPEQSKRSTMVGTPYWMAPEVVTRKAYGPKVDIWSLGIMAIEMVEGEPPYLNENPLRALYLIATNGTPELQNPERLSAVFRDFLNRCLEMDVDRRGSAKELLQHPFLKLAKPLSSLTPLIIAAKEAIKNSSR

[8] = target: plurality of kinases (Table 5) (Homo sapiens, UniProt Q9Y6R4); settings: plate E7; inhibitor 100 uM
plurality of kinases (Table 5) (Homo sapiens, UniProt Q9Y6R4), sequence (Q9Y6R4 whole entry): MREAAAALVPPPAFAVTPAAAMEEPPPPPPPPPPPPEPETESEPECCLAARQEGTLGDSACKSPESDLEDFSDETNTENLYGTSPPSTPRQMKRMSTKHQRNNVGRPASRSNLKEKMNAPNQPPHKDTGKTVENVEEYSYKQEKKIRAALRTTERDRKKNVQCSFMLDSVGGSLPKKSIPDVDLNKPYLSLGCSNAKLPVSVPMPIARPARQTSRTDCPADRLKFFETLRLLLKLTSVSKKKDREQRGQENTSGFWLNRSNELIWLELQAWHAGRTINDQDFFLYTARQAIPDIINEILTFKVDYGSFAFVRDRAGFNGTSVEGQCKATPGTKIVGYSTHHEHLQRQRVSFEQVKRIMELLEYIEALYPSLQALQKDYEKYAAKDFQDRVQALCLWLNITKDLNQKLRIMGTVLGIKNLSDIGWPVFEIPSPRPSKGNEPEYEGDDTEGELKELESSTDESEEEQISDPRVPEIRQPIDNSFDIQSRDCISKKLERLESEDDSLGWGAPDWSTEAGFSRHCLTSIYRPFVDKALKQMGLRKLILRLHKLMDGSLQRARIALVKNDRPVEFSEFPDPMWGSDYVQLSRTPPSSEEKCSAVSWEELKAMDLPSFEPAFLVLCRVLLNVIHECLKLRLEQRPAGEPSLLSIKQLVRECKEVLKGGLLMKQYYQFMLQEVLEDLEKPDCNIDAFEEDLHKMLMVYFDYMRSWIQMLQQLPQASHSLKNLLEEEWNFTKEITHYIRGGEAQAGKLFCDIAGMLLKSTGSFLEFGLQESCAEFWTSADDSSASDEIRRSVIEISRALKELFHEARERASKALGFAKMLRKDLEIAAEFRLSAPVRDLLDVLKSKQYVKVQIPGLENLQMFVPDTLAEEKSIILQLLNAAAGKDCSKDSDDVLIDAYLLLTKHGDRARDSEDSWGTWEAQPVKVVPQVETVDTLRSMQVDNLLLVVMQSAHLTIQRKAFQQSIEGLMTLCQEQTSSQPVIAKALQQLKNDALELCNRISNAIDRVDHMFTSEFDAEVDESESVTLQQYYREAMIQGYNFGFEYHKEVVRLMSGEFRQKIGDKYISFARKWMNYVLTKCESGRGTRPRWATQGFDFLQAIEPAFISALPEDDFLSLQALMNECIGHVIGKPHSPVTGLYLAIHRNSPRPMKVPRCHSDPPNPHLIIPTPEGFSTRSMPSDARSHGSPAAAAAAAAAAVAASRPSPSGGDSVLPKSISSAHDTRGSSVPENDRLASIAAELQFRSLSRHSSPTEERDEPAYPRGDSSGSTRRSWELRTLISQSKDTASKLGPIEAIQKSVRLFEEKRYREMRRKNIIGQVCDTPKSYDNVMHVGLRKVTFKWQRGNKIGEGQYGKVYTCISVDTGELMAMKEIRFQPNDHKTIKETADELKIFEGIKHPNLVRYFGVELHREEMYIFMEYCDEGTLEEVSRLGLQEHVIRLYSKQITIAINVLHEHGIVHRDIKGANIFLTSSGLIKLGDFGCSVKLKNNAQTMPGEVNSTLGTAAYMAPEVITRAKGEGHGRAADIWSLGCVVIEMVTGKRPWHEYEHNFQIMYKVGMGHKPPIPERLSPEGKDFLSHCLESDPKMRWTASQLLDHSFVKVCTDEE

[9] = target: T5, plurality of kinases (Table 5) (Homo sapiens, UniProt P51813); settings: plate B12; inhibitor 100 uM
T5 sequence (P51813 1-675): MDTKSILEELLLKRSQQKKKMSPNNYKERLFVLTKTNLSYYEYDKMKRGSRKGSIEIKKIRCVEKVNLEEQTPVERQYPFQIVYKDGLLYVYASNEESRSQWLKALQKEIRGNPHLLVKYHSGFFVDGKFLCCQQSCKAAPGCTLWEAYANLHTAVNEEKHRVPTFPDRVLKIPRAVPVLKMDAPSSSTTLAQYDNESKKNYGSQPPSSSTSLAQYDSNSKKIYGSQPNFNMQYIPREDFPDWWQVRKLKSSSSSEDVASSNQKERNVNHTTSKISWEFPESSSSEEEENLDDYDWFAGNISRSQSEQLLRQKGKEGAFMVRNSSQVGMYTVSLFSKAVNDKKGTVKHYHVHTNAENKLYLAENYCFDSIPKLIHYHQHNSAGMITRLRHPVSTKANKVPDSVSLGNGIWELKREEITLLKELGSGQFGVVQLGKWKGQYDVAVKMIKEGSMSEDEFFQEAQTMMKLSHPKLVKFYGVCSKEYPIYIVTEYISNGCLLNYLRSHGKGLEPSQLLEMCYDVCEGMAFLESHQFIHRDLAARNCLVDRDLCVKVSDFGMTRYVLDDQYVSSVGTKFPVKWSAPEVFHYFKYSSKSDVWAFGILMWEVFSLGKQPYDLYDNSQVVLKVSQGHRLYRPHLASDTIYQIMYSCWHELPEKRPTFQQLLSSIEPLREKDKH

[10] = target: plurality of kinases (Table 5) (Homo sapiens, UniProt P11309)
plurality of kinases (Table 5) (Homo sapiens, UniProt P11309), sequence (P11309 whole entry): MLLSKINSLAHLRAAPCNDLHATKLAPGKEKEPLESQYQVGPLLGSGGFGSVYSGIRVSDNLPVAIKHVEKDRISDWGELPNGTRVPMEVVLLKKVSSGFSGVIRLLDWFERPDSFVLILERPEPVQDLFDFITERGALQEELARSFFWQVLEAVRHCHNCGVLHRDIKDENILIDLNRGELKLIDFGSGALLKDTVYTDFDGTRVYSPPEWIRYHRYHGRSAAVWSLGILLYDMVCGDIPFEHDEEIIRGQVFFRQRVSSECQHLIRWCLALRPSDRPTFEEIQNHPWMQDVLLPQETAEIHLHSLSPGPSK

O=S(=O)(NCCNC/C=C/c1ccc(Br)cc1)c1cccc2cnccc12 [H-89]
Inhibition level, LOC57118 [1]: 1 | Inhibition level, PRKCH ([2]; inhibitor 100 uM): 2 | Inhibition level, MAP2K4 ([3]; plate E6, inhibitor 100 uM): 1 | Inhibition level, TOPK ([4]; inhibitor 100 uM): 2 | Inhibition level, DYRK2 ([5]; inhibitor 100 uM): 2 | Inhibition level, STK13 [6]: 1 | Inhibition level, PAK3 ([7]; inhibitor 100 uM): 2 | Inhibition level, MAP3K4 [8]: 1 | Inhibition level, BMX [9]: 1 | Inhibition level, PIM1 ([10]; plate C2, inhibitor 100 uM): 2

Cn1cc(C2=C(c3cn(CCCSC(=N)N)c4ccccc34)C(=O)NC2=O)c2ccccc21 [Ro-31-8220]
Inhibition level, LOC57118 [1]: 0 | Inhibition level, PRKCH ([2]; Ro-31-8220, conc. not given): 2 | Inhibition level, PRKCH ([2]; inhibitor 100 uM): 2 | Inhibition level, MAP2K4 ([3]; plate E6, Ro-31-8220 90 uM): 0 | Inhibition level, MAP2K4 ([3]; plate E6, inhibitor 100 uM): 1 | Inhibition level, TOPK ([4]; Ro-31-8220 90 uM): 2 | Inhibition level, TOPK ([4]; inhibitor 100 uM): 0 | Inhibition level, DYRK2 ([5]; Ro-31-8220, conc. not given): 0 | Inhibition level, DYRK2 ([5]; inhibitor 100 uM): 2 | Inhibition level, STK13 [6]: 2 | Inhibition level, PAK3 ([7]; Ro-31-8220, conc. not given): 2 | Inhibition level, PAK3 ([7]; inhibitor 100 uM): 2 | Inhibition level, MAP3K4 [8]: 2 | Inhibition level, BMX [9]: 2 | Inhibition level, PIM1 ([10]; plate C2, Ro-31-8220 90 uM): 2 | Inhibition level, PIM1 ([10]; plate C2, inhibitor 100 uM): 0

CC(=O)c1c(O)c(C)c(O)c(Cc2c(O)c3c(c(C(=O)/C=C/c4ccccc4)c2O)OC(C)(C)C=C3)c1O [Rottlerin (Mallotoxin)]
Inhibition level, LOC57118 [1]: 0 | Inhibition level, PRKCH ([2]; inhibitor 100 uM): 2 | Inhibition level, MAP2K4 ([3]; plate E6, inhibitor 100 uM): 1 | Inhibition level, TOPK ([4]; inhibitor 100 uM): 2 | Inhibition level, DYRK2 ([5]; inhibitor 100 uM): 2 | Inhibition level, STK13 [6]: 1 | Inhibition level, PAK3 ([7]; inhibitor 100 uM): 0 | Inhibition level, MAP3K4 [8]: 1 | Inhibition level, BMX [9]: 1 | Inhibition level, PIM1 ([10]; plate C2, inhibitor 100 uM): 2

CC(C)(C)n1nc(-c2ccc(Cl)cc2)c2c(N)ncnc21 [PP2]
Inhibition level, LOC57118 [1]: 0 | Inhibition level, PRKCH ([2]; inhibitor 100 uM): 2 | Inhibition level, MAP2K4 ([3]; plate E6, inhibitor 100 uM): 2 | Inhibition level, TOPK ([4]; inhibitor 100 uM): 2 | Inhibition level, DYRK2 ([5]; inhibitor 100 uM): 2 | Inhibition level, STK13 [6]: 2 | Inhibition level, PAK3 ([7]; inhibitor 100 uM): 2 | Inhibition level, MAP3K4 [8]: 2 | Inhibition level, BMX [9]: 2 | Inhibition level, PIM1 ([10]; plate C2, inhibitor 100 uM): 2

COc1cc2ncnc(Nc3cccc(Cl)c3)c2cc1OC [AG 1478]
Inhibition level, LOC57118 [1]: 0 | Inhibition level, PRKCH ([2]; inhibitor 100 uM): 0 | Inhibition level, MAP2K4 ([3]; plate E6, inhibitor 100 uM): 0 | Inhibition level, TOPK ([4]; inhibitor 100 uM): 1 | Inhibition level, DYRK2 ([5]; inhibitor 100 uM): 2 | Inhibition level, STK13 [6]: 1 | Inhibition level, PAK3 ([7]; inhibitor 100 uM): 2 | Inhibition level, MAP3K4 [8]: 1 | Inhibition level, BMX [9]: 1 | Inhibition level, PIM1 ([10]; plate C2, inhibitor 100 uM): 1

N#C/C(=C/c1ccc(O)c(O)c1)C(=O)NCc1ccccc1 [AG 490]
Inhibition level, LOC57118 [1]: 1 | Inhibition level, PRKCH ([2]; inhibitor 100 uM): 2 | Inhibition level, MAP2K4 ([3]; plate E6, inhibitor 100 uM): 0 | Inhibition level, TOPK ([4]; inhibitor 100 uM): 2 | Inhibition level, DYRK2 ([5]; inhibitor 100 uM): 2 | Inhibition level, STK13 [6]: 2 | Inhibition level, PAK3 ([7]; inhibitor 100 uM): 1 | Inhibition level, MAP3K4 [8]: 2 | Inhibition level, BMX [9]: 0 | Inhibition level, PIM1 ([10]; plate C2, inhibitor 100 uM): 2

CN[C@@H]1C[C@H]2O[C@@](C)([C@@H]1OC)n1c3ccccc3c3c4c(c5c6ccccc6n2c5c31)C(=O)NC4 [Staurosporine]
Inhibition level, MAP2K4 [3]: 0 | Inhibition level, TOPK ([4]; Staurosporine 21.5 uM): 2 | Inhibition level, PIM1 [10]: 2

O=c1c(O)c(-c2ccc(O)c(O)c2)oc2cc(O)cc(O)c12 [Quercetin]
Inhibition level, LOC57118 [1]: 0 | Inhibition level, PRKCH ([2]; inhibitor 100 uM): 0 | Inhibition level, MAP2K4 ([3]; plate E6, inhibitor 100 uM): 0 | Inhibition level, TOPK ([4]; inhibitor 100 uM): 0 | Inhibition level, DYRK2 ([5]; inhibitor 100 uM): 2 | Inhibition level, STK13 [6]: 2 | Inhibition level, PAK3 ([7]; inhibitor 100 uM): 2 | Inhibition level, MAP3K4 [8]: 0 | Inhibition level, BMX [9]: 0

O=c1c(-c2ccc(O)cc2)coc2cc(O)cc(O)c12 [Genistein]
Inhibition level, LOC57118 [1]: 0 | Inhibition level, PRKCH ([2]; Genistein, conc. not given): 0 | Inhibition level, PRKCH ([2]; inhibitor 100 uM): 2 | Inhibition level, MAP2K4 ([3]; plate E6, Genistein <3.7 mM): 0 | Inhibition level, MAP2K4 ([3]; plate E6, inhibitor 100 uM): 2 | Inhibition level, TOPK ([4]; Genistein <3.7 mM): 0 | Inhibition level, TOPK ([4]; inhibitor 100 uM): 2 | Inhibition level, DYRK2 ([5]; Genistein, conc. not given): 1 | Inhibition level, DYRK2 ([5]; inhibitor 100 uM): 2 | Inhibition level, STK13 [6]: 2 | Inhibition level, PAK3 ([7]; Genistein, conc. not given): 0 | Inhibition level, PAK3 ([7]; inhibitor 100 uM): 2 | Inhibition level, MAP3K4 [8]: 1 | Inhibition level, BMX [9]: 0 | Inhibition level, PIM1 ([10]; plate C2, Genistein <3.7 mM): 0 | Inhibition level, PIM1 ([10]; plate C2, inhibitor 100 uM): 2
